Measurements reported in patent US20250108023A1, “Products for Masking Bitterness” (The Third People's Hospital of Henan Province, priority 2023, published 2025).

Legend:
TRPM5 = biological target: T1, TRPM5 (Mus musculus, UniProt Q9JJH7); details: TPPO 5 μM; cited from earlier work
T1 construct: host or cells: mouse taste cells
T1 sequence (Q9JJH7 1-1158): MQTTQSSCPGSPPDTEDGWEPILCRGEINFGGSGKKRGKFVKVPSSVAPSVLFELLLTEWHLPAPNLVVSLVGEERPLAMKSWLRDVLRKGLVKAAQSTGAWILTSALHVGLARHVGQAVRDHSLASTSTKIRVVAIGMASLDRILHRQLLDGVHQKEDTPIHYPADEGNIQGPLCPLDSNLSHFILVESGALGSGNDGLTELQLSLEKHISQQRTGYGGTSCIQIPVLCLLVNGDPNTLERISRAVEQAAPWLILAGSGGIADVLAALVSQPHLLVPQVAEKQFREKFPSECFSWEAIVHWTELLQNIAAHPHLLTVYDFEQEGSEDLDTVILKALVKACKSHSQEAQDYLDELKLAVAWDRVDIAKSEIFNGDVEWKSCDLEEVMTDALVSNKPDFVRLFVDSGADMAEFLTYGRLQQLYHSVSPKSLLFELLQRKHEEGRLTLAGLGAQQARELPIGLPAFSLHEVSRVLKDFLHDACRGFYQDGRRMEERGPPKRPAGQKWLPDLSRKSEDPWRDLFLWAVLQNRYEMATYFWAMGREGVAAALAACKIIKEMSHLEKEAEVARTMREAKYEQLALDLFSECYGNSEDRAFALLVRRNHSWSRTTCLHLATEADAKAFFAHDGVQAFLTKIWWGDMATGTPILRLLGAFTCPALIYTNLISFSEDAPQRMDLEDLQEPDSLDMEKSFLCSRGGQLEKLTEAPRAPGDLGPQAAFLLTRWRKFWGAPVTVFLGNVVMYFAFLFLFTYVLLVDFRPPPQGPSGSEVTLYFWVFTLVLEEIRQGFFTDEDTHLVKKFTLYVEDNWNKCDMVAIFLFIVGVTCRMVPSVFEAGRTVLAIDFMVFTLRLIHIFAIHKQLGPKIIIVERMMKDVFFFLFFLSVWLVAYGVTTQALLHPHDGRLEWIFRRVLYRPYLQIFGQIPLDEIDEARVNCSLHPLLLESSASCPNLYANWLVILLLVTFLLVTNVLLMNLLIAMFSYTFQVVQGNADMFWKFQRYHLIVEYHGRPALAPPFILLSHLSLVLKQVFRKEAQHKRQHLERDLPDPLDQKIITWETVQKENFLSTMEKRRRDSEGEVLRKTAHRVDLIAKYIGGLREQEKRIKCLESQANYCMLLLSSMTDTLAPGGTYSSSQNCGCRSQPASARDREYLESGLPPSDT

[1] = biological target: T2, sodium ion channel of Trpm5 bitter receptor (Mus musculus, UniProt Q9JJH7); assay: Immunofluorescence experiment of sodium ion channels in mouse tongue cells stimulated with bitter agent; type: cell-based, mice
T2 construct: Put the removed tongue in a 2 ml EP tube, add 1-1.5 ml of 0.25% trypsin solution; from tissue; host or cells: cells dissociated with trypsin from mouse tongue
T2 sequence (Q9JJH7 1-1158): T1 sequence (Q9JJH7 1-1158)
Method: The mouse was killed by dislocation, and the tongue was removed (minimizing tongue bleeding), disinfected with alcohol for 2 minutes (adding sodium citrate for anticoagulation), and washed with D-Hanks solution or rinsed with 10 ml of saline solution drawn by a syringe.
Take out the centrifuge tube from the constant temperature incubator, shake for 2 minutes, blow the undigested tongue several times with the gun tip, take out the tongue, cover it with the EP tube cap, put it in a centrifuge, centrifuge at 3000 rpm for 3 minutes, discard the supernatant, add cell culture medium (containing 10% inactivated serum), blow and disperse the cells, and place it in a 37° C. constant temperature incubator for 30 min to allow the cells to recover.
(1) Take out the prepared ENG-2 AM storage solution and warm it to room temperature for use, keeping it away from light. The concentration of the pre-prepared stock solution is 2 mM and it is stored at −18° C. for future use.
(2) Dilute the ENG-2 AM+DMSO stock solution to a […] working solution using serum-free culture medium.
(3) Load the probe in a serum-free culture medium containing an appropriate concentration of AM probe.
Take out the cells from the incubator, centrifuge, and discard the culture medium. Wash the cells once with D-Hanks solution, centrifuge, and discard the culture medium. Add 1 ml of culture medium again, then add 300 ul of sodium ion probe dilution solution, blow and disperse the cells, and incubate the cells at room temperature or 37° C. for 1 hour.
At the end of incubation, centrifuge at 100 rpm for 2 minutes, discard the supernatant, add 500 ul of cell culture medium without AM probe, blow and disperse the cells, and incubate for 20-60 min to ensure that the cells completely deesterify the AM group.
(4) Take 10 ul of incubation solution and drop it into the center of the cell counting plate, cover it with a slide, and observe it under a fluorescence microscope.
(5) Use a low-power microscope to find the cells, open the fluorescence path, detect the fluorescence signal with a fluorescence microscope, change to a high-power microscope, find the appropriate observation cells, observe and take pictures to record the initial signal.
(2) Experimental drugs: Add 5 ul of the tested drug to one side of the cover glass on the cell counting plate, use absorbent paper to absorb water on the opposite side, let the solution soak the cells, and then use a fluorescence microscope to observe and take 3-5 photos, one every 1-2 minutes; then add 5 ul of the standard bitter drug to one side of the cover glass on the cell counting plate, use absorbent paper to absorb water on the opposite side, let the solution soak the cells, and then use a fluorescence microscope to observe and take 3-5 photos, one every 1-2 minutes.
(5) Data analysis: Use Image J-Fiji software to analyze the images, compare the average values of the fluorescence pixels, remove the base number and compare them in the table, draw FIGS. 4-6, and use SPSS18.0 to perform chi-square tests to compare the differences between the data groups.

[2] = Bitterant 60 s (2% metronidazole solution)
[3] = Bitterant 120 s (2% metronidazole solution)
[4] = Bitterant 180 s (2% metronidazole solution)

average value of fluorescence brightness ([1]; Addition of drugs): 88.789
average value of fluorescence brightness, base number removed ([1]; Addition of drugs): −0.243
average value of fluorescence brightness [1, 2]: 88.608
average value of fluorescence brightness, base number removed [1, 2]: −0.308
average value of fluorescence brightness [1, 3]: 88.598
average value of fluorescence brightness, base number removed [1, 3]: −1.322
average value of fluorescence brightness [1, 4]: 88.583
average value of fluorescence brightness, base number removed [1, 4]: −1.384
average value of fluorescence brightness, base number removed ([1]; Initial): 0
average value of fluorescence brightness ([1]; Initial (before addition of drug), sodium ion dye ENG-2 AM): 88.898
blocking effect on the sodium ion channel (result analysis in words) ([1]; judged from change of sodium ion fluorescence after bitter drug): sodium ion channel is blocked
SMILES: O=P(c1ccccc1)(c1ccccc1)c1ccccc1 [Triphenylphosphine oxide, reference compound]
remaining taste-evoked Na^+ responses (TRPM5): abolished
